Assay results from ChEMBL document CHEMBL1126188, “Synthesis and anti-HIV activity of 4'-thio-2',3'-dideoxynucleosides” (J Med Chem, 1992).
Values after ≈ are worked out from the molar mass of the structure shown.

Tests used:
[1] = tested on: CCRF-CEM; test: Minimum compound concentration that reduced cell viability by 25% for HIV replication in CEM cells.; format: functional, Homo sapiens
[2] = tested on: MT2; test: Compound was tested for its inhibitory activity against HIV replication in MT-2 cells.; format: functional, cell-based; details: Homo sapiens
[3] = tested on: MT2; test: Total viral index (TAI) is the area between the cytotoxicity and the antiviral activity curve for MT-2 cell line.; format: functional, Homo sapiens
[4] = tested on: MT2; test: Minimum compound concentration that reduced cell viability by 25% for HIV replication in MT-2 cells.; format: functional, Homo sapiens
[5] = Selectivity index is calculated by dividing the TC25(MT2) by ID50(MT2); format: functional
[6] = tested on: CCRF-CEM; test: Compound was tested for its inhibitory activity against HIV replication in CEM cells.; format: functional, cell-based; details: Homo sapiens
[7] = tested on: CCRF-CEM; test: Total viral index (TAI) is the area between the cytotoxicity and the antiviral activity curve for CEM cell line.; format: functional, Homo sapiens
[8] = tested on: MT2; test: Total viral index (TAI) is the area between the cytotoxicity and the antiviral activity curve for MT-2 cells.; format: functional, Homo sapiens
[9] = Selectivity index is calculated by dividing the TC25(CEM) by ID50(CEM); format: functional
[10] = tested on: CCRF-CEM; test: Compound was tested for its inhibitory activity against HIV replication in CEM cells.; details: Homo sapiens
[11] = tested on: CCRF-CEM; test: Minimum compound concentration that reduced cell viability by 25% for HIV replication in CEM cells.
[12] = tested on: CCRF-CEM; test: Total viral index (TAI) is the area between the cytotoxicity and the antiviral activity curve for CEM cells.
[13] = tested on: CCRF-CEM; test: Total viral index (TAI) is the area between the cytotoxicity and the antiviral activity curve for CEM cells.; format: functional, Homo sapiens

| IC50 [2] | IC50 [6] | IC50 [10] | SMILES | TC25 [1] | TAI [3] | TC25 [4] | Selectivity index [5] | TAI [7] | TAI [8] | Selectivity index [9] | TC25 [11] | TAI [12] | TAI [13] |
| --- | --- | --- | --- | --- | --- | --- | --- | --- | --- | --- | --- | --- | --- |
| 98 mg/L (≈ 367 µM) |  |  | Nc1nc(O)c2ncn(C3CC[C@@H](CO)S3)c2n1 (some centres not stated) | >100 mg/L | 11 | >200 mg/L | 1.6 |  |  |  |  |  |  |
| 80 mg/L (≈ 318 µM) |  |  | Nc1ncnc2c1ncn2C1CC[C@@H](CO)S1 (some centres not stated) |  | >10 | >100 mg/L | 1.3 |  |  |  |  |  |  |
| 38 mg/L (≈ 167 µM) | 1 mg/L (≈ 4.4 µM) |  | Nc1ccn(C2CC[C@@H](CO)S2)c(=O)n1 (some centres not stated) | >100 mg/L |  | >100 mg/L | > 100 | >65 | >23 | > 100 |  |  |  |
|  |  | 37 mg/L (≈ 139 µM) | Nc1nc(N)c2ncn(C3CC[C@@H](CO)S3)c2n1 (some centres not stated) |  |  |  |  |  |  | 2.6 | 97 mg/L (≈ 364 µM) | 21 |  |
| 0.14 mg/L (≈ 0.524 µM) | < 0.03 mg/L |  | Cc1cn([C@H]2C[C@H](N=[N+]=[N-])[C@@H](CO)O2)c(=O)[nH]c1=O [ZIDOVUDINE] | >10 mg/L | >82 | 9.3 mg/L (≈ 34.8 µM) | > 160 |  |  | > 300 |  |  | >93 |
| 0.44 mg/L (≈ 2.08 µM) | 0.05 mg/L (≈ 0.237 µM) |  | Nc1ccn([C@H]2CC[C@@H](CO)O2)c(=O)n1 [ZALCITABINE] | 5.3 mg/L (≈ 25.1 µM) | >52 | >9.8 mg/L | > 25 |  |  | 120 |  |  | >63 |
